According to patent US20250099433A1, “COMPOSITION AND METHOD FOR TREATMENT OF GRAM NEGATIVE BACTERIAL INFECTION” (The Research Foundation for the State University of New York, priority 2021, published 2025):
≈ marks a conversion by molar mass, not a printed value. Where “and” joins values, the source holds several entries; their conditions need not be identical. Equal entries are not always repeated. Where two headings read alike, the source gives them in different places.

What was measured:
[1] = test system: P. aeruginosa PAO1; test: MIC by microbroth dilution, P. aeruginosa PAO1; conditions: for MIC: Pseudomonas aeruginosa, PAO1, read-out: MIC (μM) (PAO1)
[2] = test system: efflux-pump mutant strain (ΔMexABCDXY) (paEP); test: MIC by microbroth dilution, efflux-pump mutant P. aeruginosa; conditions: for MIC: Pseudomonas aeruginosa, read-out: MIC (μM) (paEP)
Excerpt: Bacterial Strains. […] The efflux-pump deficient P. aeruginosa strain (ΔMexABCDXY), N150, was derived from PAO1.
Minimum Inhibitory Concentration (MIC) Measurements.

[3] = target: paLpxC (Pseudomonas aeruginosa (strain ATCC 15692 / DSM 22644 / CIP 104116 / JCM 14847 / LMG 12228 / 1C / PRS 101 / PAO1), UniProt P47205); test: biochemical; format: binding; conditions: for tR (min) Fluorescence assay: tR = 1/koff; for residence time fold longer than 1: fluorescence assay; for kon: read-out: Kon (μM^−1s^−1)
[4] = 37° C., fluorescence competition

Chain of paLpxC (P47205 1-299): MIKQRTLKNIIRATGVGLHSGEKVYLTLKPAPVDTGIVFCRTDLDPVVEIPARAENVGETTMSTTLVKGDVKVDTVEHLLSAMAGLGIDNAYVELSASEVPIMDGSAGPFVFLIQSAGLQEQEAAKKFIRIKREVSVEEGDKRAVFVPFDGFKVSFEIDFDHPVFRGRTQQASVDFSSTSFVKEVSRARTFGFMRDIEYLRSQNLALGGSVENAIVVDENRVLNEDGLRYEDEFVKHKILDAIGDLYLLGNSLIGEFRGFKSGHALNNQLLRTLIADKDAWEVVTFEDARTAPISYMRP

SMILES	MIC [1]	MIC [2]	tR (min) Fluorescence assay ([3]; 37° C.)	MIC fold lower than that for PT810 [1]	Ki [3, 4]	residence time fold longer than 1 ([3]; 37° C.)	koff ([3]; read-out: Koff (s^−1))	kon [3]	binding to paLpxC (Kon, Koff, tR, Ki) [3, 4]	MIC (μM) (PAO1) ([1]; wild-type P. aeruginosa PAO1)	MIC (μM) (paEP) ([2]; efflux-pump mutant ΔMexABCDXY)	Kon [3, 4]	koff [3, 4]
CC(CCn1ccc(-c2ccc(-c3cnnn3Cc3ccccc3)cc2)cc1=O)(C(N)=O)S(C)(=O)=O (stereo not drawn) [PT925, 4-(4-(4-(1-benzyl-1H-1,2,3-triazol-5-yl)phenyl)-2-oxopyridin-1(2H)-yl)-2-methyl-2-(methylsulfonyl)butanamide]	50 µM (≈ 25.3 µg/mL)	12.5 µM (≈ 6.32 µg/mL)	9 min and 9.0 ± 0.9 min	–	–	–	–	–	–	–	–	–	–
CC(CCn1ccc(-c2ccc(-c3cn(Cc4ccncc4)nn3)cc2)cc1=O)(C(=O)NO)S(C)(=O)=O (racemic) [PT915, N-hydroxy-2-methyl-2-(methylsulfonyl)-4-(2-oxo-4-(4-(1-(pyridin-4-ylmethyl)-1H-1,2,3-triazol-4-yl)phenyl)pyridin-1(2H)-yl)butanamide]	50 µM (≈ 26.1 µg/mL)	6.25 µM (≈ 3.27 µg/mL)	–	–	–	–	–	–	–	–	–	–	–
CC(CCn1ccc(-c2ccc(-c3cn(Cc4ccccn4)nn3)cc2)cc1=O)(C(=O)NO)S(C)(=O)=O (racemic) [PT914, N-hydroxy-2-methyl-2-(methylsulfonyl)-4-(2-oxo-4-(4-(1-(pyridin-2-ylmethyl)-1H-1,2,3-triazol-4-yl)phenyl)pyridin-1(2H)-yl)butanamide]	6.25 µM (≈ 3.27 µg/mL)	0.2 µM (≈ 0.105 µg/mL)	118.5 ± 44.0 min	2 fold	5.5 ± 3.4 pM	~3 fold	0.00016 ± 6e-05 s⁻¹	37.2 ± 23 µM⁻¹ s⁻¹	–	–	–	–	–
CC(CCn1ccc(-c2ccc(-c3cn(Cc4ccc([N+](=O)[O-])cc4)nn3)cc2)cc1=O)(C(=O)NO)S(C)(=O)=O (racemic) [PT918, N-hydroxy-2-methyl-2-(methylsulfonyl)-4-(4-(4-(1-(4-nitrobenzyl)-1H-1,2,3-triazol-4-yl)phenyl)-2-oxopyridin-1(2H)-yl)butanamide]	6.25 µM (≈ 3.54 µg/mL)	0.1 µM (≈ 0.0567 µg/mL)	78.5 ± 8.4 min	–	7 ± 1 pM	–	0.00021 ± 2e-05 s⁻¹	30.7 ± 0.1 µM⁻¹ s⁻¹	–	–	–	–	–
CC(CCn1ccc(-c2ccc(-c3cn(Cc4ccncn4)nn3)cc2)cc1=O)(C(=O)NO)S(C)(=O)=O (racemic) [PT916, N-hydroxy-2-methyl-2-(methylsulfonyl)-4-(2-oxo-4-(4-(1-(pyrimidin-4-ylmethyl)-1H-1,2,3-triazol-4-yl)phenyl)pyridin-1(2H)-yl)butanamide]	50 µM (≈ 26.2 µg/mL)	3.12 µM (≈ 1.64 µg/mL)	102.7 ± 20.2 min	–	4.2 ± 2.2 pM	–	0.00017 ± 3e-05 s⁻¹	44.3 ± 14.5 µM⁻¹ s⁻¹	–	–	–	–	–
C[C@@H](O)C(NC(=O)c1ccc(-c2cn(Cc3ccccc3)nn2)cc1)C(=O)NO (stereo partly drawn) [PT903, 4-(1-benzyl-1H-1,2,3-triazol-4-yl)-N-((3R)-3-hydroxy-1-(hydroxyamino)-1-oxobutan-2-yl)benzamide]	> 50 µM	> 12.5 µM	–	–	–	–	–	–	No binding was observed	–	–	–	–
CC(CCn1ccc(-c2ccc(-c3cn(CC4CCCCC4)nn3)cc2)cc1=O)(C(=O)NO)S(C)(=O)=O (racemic) [PT910, 4-(4-(4-(1-(cyclohexylmethyl)-1H-1,2,3-triazol-4-yl)phenyl)-2-oxopyridin-1(2H)-yl)-N-hydroxy-2-methyl-2-(methylsulfonyl)butanamide]	50 µM (≈ 26.4 µg/mL)	3.12 µM (≈ 1.65 µg/mL)	100.2 ± 18.5 min	–	5.5 ± 3.4 pM	–	0.00017 ± 3e-05 s⁻¹	31 ± 3 µM⁻¹ s⁻¹	–	–	–	–	–
CC1(Cn2cc(-c3ccc(-c4ccn(CCC(C)(C(=O)NO)S(C)(=O)=O)c(=O)c4)cc3)nn2)COC1 (racemic) [PT911, N-hydroxy-2-methyl-4-(4-(4-(1-((3-methyloxetan-3-yl)methyl)-1H-1,2,3-triazol-4-yl)phenyl)-2-oxopyridin-1(2H)-yl)-2-(methylsulfonyl)butanamide]	25 µM (≈ 12.9 µg/mL)	1.56 µM (≈ 0.804 µg/mL)	–	–	–	–	–	–	–	–	–	–	–
CC(CCn1ccc(-c2ccc(C(=O)NCc3ccccc3)cc2)cc1=O)(C(=O)NO)S(C)(=O)=O (racemic) [PT923, N-benzyl-4-(1-(4-(hydroxyamino)-3-methyl-3-(methylsulfonyl)-4-oxobutyl)-2-oxo-1,2-dihydropyridin-4-yl)benzamide]	25 µM (≈ 12.4 µg/mL)	3.12 µM (≈ 1.55 µg/mL)	8.0 ± 1.2 min	–	274 ± 76.6 pM	–	0.0021 ± 0.0003 s⁻¹	23.8 ± 18.8 µM⁻¹ s⁻¹	–	–	–	–	–
CC(CCn1ccc(-c2ccc(-c3cn(Cc4cccnc4)nn3)cc2)cc1=O)(C(=O)NO)S(C)(=O)=O (racemic) [PT917, N-hydroxy-2-methyl-2-(methylsulfonyl)-4-(2-oxo-4-(4-(1-(pyridin-3-ylmethyl)-1H-1,2,3-triazol-4-yl)phenyl)pyridin-1(2H)-yl)butanamide]	–	–	121.3 ± 4.4 min	–	3.2 ± 0.2 pM	~3 fold	0.00014 ± 1e-05 s⁻¹	42.8 ± 1.3 µM⁻¹ s⁻¹	–	–	–	–	–
COc1ccc(-c2ccn(CCC(C)(C(=O)NO)S(C)(=O)=O)c(=O)c2)cc1 (racemic) [PT902, N-hydroxy-4-(4-(4-methoxyphenyl)-2-oxopyridin-1(2H)-yl)-2-methyl-2-(methylsulfonyl)butanamide]	3.12 µM (≈ 1.23 µg/mL)	0.8 µM (≈ 0.316 µg/mL)	–	–	–	–	–	–	–	–	–	–	–
CC(CCn1ccc(-c2ccc(N)cc2)cc1=O)(C(=O)NO)S(C)(=O)=O (stereo not drawn) [PT919]	–	–	121.15 ± 30 min	–	4 ± 3 pM	–	–	–	–	12.5 µM (≈ 4.74 µg/mL)	0.78 µM (≈ 0.296 µg/mL)	6.427e+07 ± 5.976e+07 M⁻¹ s⁻¹	0.000143 ± 0.00003 s⁻¹
COc1ccc(-c2ccc(CNC3(C(=O)NO)CCS(=O)(=O)CC3)cc2F)cc1 [PT921, 4-(((2-fluoro-4′-methoxy-[1,1′-biphenyl]-4-yl)methyl)amino)-N-hydroxytetrahydro-2H-thiopyran-4-carboxamide 1,1-dioxide]	0.8 µM (≈ 0.338 µg/mL)	0.1 µM (≈ 0.0422 µg/mL)	34.3 ± 1.0 min	–	14.4 ± 2.5 pM	–	0.00049 ± 1e-05 s⁻¹	34.5 ± 6.3 µM⁻¹ s⁻¹	–	–	–	–	–
CC(CCn1ccc(-c2ccc(-c3cn(CCO)nn3)cc2)cc1=O)(C(=O)NO)S(C)(=O)=O (racemic) [PT912, N-hydroxy-4-(4-(4-(1-(2-hydroxyethyl)-1H-1,2,3-triazol-4-yl)phenyl)-2-oxopyridin-1(2H)-yl)-2-methyl-2-(methylsulfonyl)butanamide]	> 50 µM	> 12.5 µM	92.3 ± 11.2 min	–	3.7 ± 2.3 pM	–	0.00018 ± 2e-05 s⁻¹	59.6 ± 22.9 µM⁻¹ s⁻¹	–	–	–	–	–
CC(CCn1ccc(-c2ccc(CN3CCOCC3)cc2)cc1=O)(C(=O)NO)S(C)(=O)=O (racemic) [PT904, N-hydroxy-2-methyl-2-(methylsulfonyl)-4-(4-(4-(morpholinomethyl)phenyl)-2-oxopyridin-1(2H)-yl)butanamide]	50 µM (≈ 23.2 µg/mL)	–	4.7 ± 0.2 min	–	96.8 ± 3 pM	–	0.0035 ± 0.0001 s⁻¹	36.4 ± 0.4 µM⁻¹ s⁻¹	–	–	–	–	–
CC(CCn1ccc(-c2ccc(NC(=O)Cc3ccccc3)cc2)cc1=O)(C(=O)NO)S(C)(=O)=O (racemic) [PT924, N-hydroxy-2-methyl-2-(methylsulfonyl)-4-(2-oxo-4-(4-(2-phenylacetamido)phenyl)pyridin-1(2H)-yl)butanamide]	50 µM (≈ 24.9 µg/mL)	3.12 µM (≈ 1.55 µg/mL)	4.0 ± 1.0 min	–	95.4 ± 16.2 pM	–	0.0043 ± 0.0009 s⁻¹	44.8 ± 5.4 µM⁻¹ s⁻¹	–	–	–	–	–
